# Laboratory results taken from patent US6878804B1, “Synthesis of template-fixed β-hairpin loop mimetics” (University of Zurich, priority 1999, dated 2005).
# Where two headings read alike, the source gives them in different places. Non-standard residues stand in square brackets, D forms with d. Residues, ends and D or L forms follow the SMILES beside them.
# B1: target cyclic peptide 3 (peptide)
# peptide: cyclo(PEWVRKKWI[dP])
# SMILES: CC[C@H](C)[C@@H]1NC(=O)[C@H](Cc2c[nH]c3ccccc23)NC(=O)[C@H](CCCCN)NC(=O)[C@H](CCCCN)NC(=O)[C@H](CCCNC(=N)N)NC(=O)[C@H](C(C)C)NC(=O)[C@H](Cc2c[nH]c3ccccc23)NC(=O)[C@H](CCC(=O)O)NC(=O)[C@@H]2CCCN2C(=O)[C@H]2CCCN2C1=O
# notes: also called compound 3
# B2: target cyclic peptide 4 (peptide)
# peptide: cyclo(PEAVRKKAI[dP])
# SMILES: CC[C@H](C)[C@@H]1NC(=O)[C@H](C)NC(=O)[C@H](CCCCN)NC(=O)[C@H](CCCCN)NC(=O)[C@H](CCCNC(=N)N)NC(=O)[C@H](C(C)C)NC(=O)[C@H](C)NC(=O)[C@H](CCC(=O)O)NC(=O)[C@@H]2CCCN2C(=O)[C@H]2CCCN2C1=O
# notes: also called compound 4
# B3: target cyclic peptide 5 (peptide)
# peptide: cyclo(PESVRKKSI[dP])
# SMILES: CC[C@H](C)[C@@H]1NC(=O)[C@H](CO)NC(=O)[C@H](CCCCN)NC(=O)[C@H](CCCCN)NC(=O)[C@H](CCCNC(=N)N)NC(=O)[C@H](C(C)C)NC(=O)[C@H](CO)NC(=O)[C@H](CCC(=O)O)NC(=O)[C@@H]2CCCN2C(=O)[C@H]2CCCN2C1=O
# notes: also called compound 5
# B4: target cyclic peptide 7 (peptide)
# peptide: cyclo(PYIVRKKPY[dP])
# SMILES: CC[C@H](C)[C@@H]1NC(=O)[C@H](Cc2ccc(O)cc2)NC(=O)[C@@H]2CCCN2C(=O)[C@H]2CCCN2C(=O)[C@H](Cc2ccc(O)cc2)NC(=O)[C@@H]2CCCN2C(=O)[C@H](CCCCN)NC(=O)[C@H](CCCCN)NC(=O)[C@H](CCCNC(=N)N)NC(=O)[C@H](C(C)C)NC1=O
# notes: also called ^LP-Y-I-V-R / ^DP-Y-P-K-K
# B5: target cyclic peptide 8 (peptide)
# peptide: cyclo(PYYVRKKYY[dP])
# SMILES: CC(C)[C@@H]1NC(=O)[C@H](Cc2ccc(O)cc2)NC(=O)[C@H](Cc2ccc(O)cc2)NC(=O)[C@@H]2CCCN2C(=O)[C@H]2CCCN2C(=O)[C@H](Cc2ccc(O)cc2)NC(=O)[C@H](Cc2ccc(O)cc2)NC(=O)[C@H](CCCCN)NC(=O)[C@H](CCCCN)NC(=O)[C@H](CCCNC(=N)N)NC1=O
# notes: also called ^LP-Y-Y-V-R / ^DP-Y-Y-K-K
# Legend:
# [1] = target: platelet-derived growth factor β-receptor (PDGFR-β) (Homo sapiens, UniProt P09619); experiment: Solid-phase assay: displacement of 125I-PDGF-BB from immobilized PDGFR-β; format: binding
# Sequence of platelet-derived growth factor β-receptor (PDGFR-β) (Homo sapiens, UniProt P09619) (P09619 33-1106, species assumed): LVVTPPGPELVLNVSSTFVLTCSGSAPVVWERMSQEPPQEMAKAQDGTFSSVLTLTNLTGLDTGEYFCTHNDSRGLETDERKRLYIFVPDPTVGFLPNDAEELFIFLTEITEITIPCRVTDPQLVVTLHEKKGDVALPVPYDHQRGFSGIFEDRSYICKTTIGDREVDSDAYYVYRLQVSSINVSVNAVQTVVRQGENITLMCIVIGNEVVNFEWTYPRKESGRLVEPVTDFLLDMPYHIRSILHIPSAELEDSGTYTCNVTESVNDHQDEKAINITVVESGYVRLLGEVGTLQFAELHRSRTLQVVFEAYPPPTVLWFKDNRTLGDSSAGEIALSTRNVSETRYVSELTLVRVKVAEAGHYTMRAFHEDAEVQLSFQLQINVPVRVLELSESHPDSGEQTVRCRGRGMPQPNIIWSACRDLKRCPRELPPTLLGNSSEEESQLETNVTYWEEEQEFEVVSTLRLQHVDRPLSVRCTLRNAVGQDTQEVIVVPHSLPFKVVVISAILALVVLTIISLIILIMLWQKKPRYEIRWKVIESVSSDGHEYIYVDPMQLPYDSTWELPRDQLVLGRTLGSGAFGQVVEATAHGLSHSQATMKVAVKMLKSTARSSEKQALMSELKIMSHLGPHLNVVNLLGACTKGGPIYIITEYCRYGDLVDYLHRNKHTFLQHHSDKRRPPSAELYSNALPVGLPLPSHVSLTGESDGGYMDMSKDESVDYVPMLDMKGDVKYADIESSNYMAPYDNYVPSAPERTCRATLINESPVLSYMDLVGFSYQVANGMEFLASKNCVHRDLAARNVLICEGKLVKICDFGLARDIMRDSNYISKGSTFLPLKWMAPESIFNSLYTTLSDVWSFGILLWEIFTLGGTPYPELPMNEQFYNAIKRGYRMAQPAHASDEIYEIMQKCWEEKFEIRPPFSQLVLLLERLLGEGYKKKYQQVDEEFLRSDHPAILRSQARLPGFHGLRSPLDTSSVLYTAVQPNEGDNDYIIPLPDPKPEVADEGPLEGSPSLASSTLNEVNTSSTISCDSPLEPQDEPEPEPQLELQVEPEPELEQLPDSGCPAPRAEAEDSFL
# Method: Direct immobilization of platelet-derived growth factor […] is performed by overnight incubation in immunosorbent 96-well plates (Nunc) at 4° C. using 100 ng of purified protein in 100 μl of 15 mM Na2CO3, 35 mM NaHCO3, pH 9.6. The plates are washed once with tris-buffered saline (TBS, 20 mM Tris-HCl, 150 mM NaCl, pH 7.4), and nonspecific adsorption is blocked by at least 1 h of incubation with TBS plus 1% bovine serum albumin (BSA). Following washing with TBS plus 0.1% Tween, 3000 cpm of ^125I-PDGF-BB and increasing amounts of unlabeled PDGF-BB or the peptide derivative of formula I are added to duplicate wells and incubated for 3 h at room temperature in 0.1% Tween, 1 mM CaCl2, 1 mM MgCl2 and 1% BSA. The plates are washed three times with TBS plus 0.1% Tween, and bound ligand is removed with 0.1 M citric acid, pH 2.5, prior to counting in a γ-counter.
# Direct immobilization of platelet-derived growth factor β-receptor (PDGFR-β) was performed by overnight incubation in immunosorbent 96-well plates (Nunc) at 4° C. using 100 ng of purified protein in 100 μl of 15 mM Na2CO3, 35 mM NaHCO3, pH 9.6. Plates were washed once with Tris-buffered saline (TBS, 20 mM Tris-HCL, 150 mM Na Cl, pH 7.4), and nonspecific adsorption was blocked by at least 1 h of incubation with TBS plus 1% bovine serum albumin (BSA). Following washing with TBS plus 0.1% Tween, 3000 cpm of ^125I-PDGF-BB and increasing amounts of unlabeled PDGF-BB or the peptides to be tested were added to duplicate wells and incubated for 3 h at room temperature in TBS plus 0.1% Tween, 1 mM CaCl2, 1 mM MgCl2, and 1% BSA. The plates were washed three times with TBS plus 0.1% Tween, and the bound ligand was removed with 0.1 M citric acid, pH 2.5, before counting in a γ-counter.
# The cyclic peptides were analyzed and purified by preparative HPLC (dual-pump Pharmacia system with Waters RCM-μBondapak®-C18-cartridges, 10 μm 300 A 25×100 mm for prep. and 8×100 mm for anal., with flow rates of 8 and 2 ml/mim, respectively; UV detection at 226 and 278 nm), then MS, NMR(600 MHz,1 H) and CD. Solid-phase assays were run, as described in 2.4.
# [2] = target: T1, platelet-derived growth factor β-receptor (PDGFR-β); experiment: solid-phase competition, displacement of 125I-PDGF-BB from plate-immobilised PDGFR-β
# T1 chain: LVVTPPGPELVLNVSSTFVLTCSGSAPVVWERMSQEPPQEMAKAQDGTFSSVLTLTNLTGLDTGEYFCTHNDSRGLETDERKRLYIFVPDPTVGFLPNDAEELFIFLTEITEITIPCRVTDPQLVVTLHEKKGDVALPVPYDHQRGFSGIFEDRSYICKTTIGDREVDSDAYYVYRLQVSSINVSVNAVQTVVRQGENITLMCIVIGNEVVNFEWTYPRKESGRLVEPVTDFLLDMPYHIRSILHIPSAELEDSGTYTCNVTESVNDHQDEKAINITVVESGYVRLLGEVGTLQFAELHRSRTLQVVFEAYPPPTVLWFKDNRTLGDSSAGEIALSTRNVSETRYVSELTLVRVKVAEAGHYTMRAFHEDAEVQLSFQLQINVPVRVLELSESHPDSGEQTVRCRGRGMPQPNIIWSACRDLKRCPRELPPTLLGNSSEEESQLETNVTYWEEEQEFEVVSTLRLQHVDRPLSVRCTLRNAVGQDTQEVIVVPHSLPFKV
# [3] = competition with 125I-PDGF-BB, 3 h at room temperature, immobilized purified PDGFR-β, read-out: Assay I50
Molecule,"IC50 [1, 3] [mM]",other results
CC[C@H](C)[C@@H]1NC(=O)[C@H](CCC(=O)O)NC(=O)[C@@H]2CCCN2C(=O)[C@H]2CCCN2C(=O)[C@H]([C@@H](C)CC)NC(=O)[C@@H]2CCCN2C(=O)[C@H](CCCCN)NC(=O)[C@H](CCCCN)NC(=O)[C@H](CCCNC(=N)N)NC(=O)[C@H](C(C)C)NC1=O [Example 1] (cyclo(PEIVRKKPI[dP])),2.2,
CC[C@H](C)[C@@H]1NC(=O)[C@H](Cc2ccc(O)cc2)NC(=O)[C@H](CCCCN)NC(=O)[C@H](CCCCN)NC(=O)[C@H](CCCNC(=N)N)NC(=O)[C@H](C(C)C)NC(=O)[C@H](Cc2ccc(O)cc2)NC(=O)[C@H](CCC(=O)O)NC(=O)[C@@H]2CCCN2C(=O)[C@H]2CCCN2C1=O [Example 2] (cyclo(PEYVRKKYI[dP])),2,
CC[C@H](C)[C@@H]1NC(=O)[C@H](Cc2c[nH]c3ccccc23)NC(=O)[C@H](CCCCN)NC(=O)[C@H](CCCCN)NC(=O)[C@H](CCCNC(=N)N)NC(=O)[C@H](C(C)C)NC(=O)[C@H](Cc2c[nH]c3ccccc23)NC(=O)[C@H](CCC(=O)O)NC(=O)[C@@H]2CCCN2C(=O)[C@H]2CCCN2C1=O [Example 3] (cyclo(PEWVRKKWI[dP])),1.5,
CC[C@H](C)[C@@H]1NC(=O)[C@H](Cc2ccc(O)cc2)NC(=O)[C@@H]2CCCN2C(=O)[C@H]2CCCN2C(=O)[C@H](Cc2ccc(O)cc2)NC(=O)[C@@H]2CCCN2C(=O)[C@H](CCCCN)NC(=O)[C@H](CCCCN)NC(=O)[C@H](CCCNC(=N)N)NC(=O)[C@H](C(C)C)NC1=O [Example 7] (cyclo(PYIVRKKPY[dP])),1.5,
CC(C)[C@@H]1NC(=O)[C@H](Cc2ccc(O)cc2)NC(=O)[C@H](Cc2ccc(O)cc2)NC(=O)[C@@H]2CCCN2C(=O)[C@H]2CCCN2C(=O)[C@H](Cc2ccc(O)cc2)NC(=O)[C@H](Cc2ccc(O)cc2)NC(=O)[C@H](CCCCN)NC(=O)[C@H](CCCCN)NC(=O)[C@H](CCCNC(=N)N)NC1=O [Example 8] (cyclo(PYYVRKKYY[dP])),0.8,
CC(C)[C@@H]1NC(=O)[C@H](Cc2c[nH]c3ccccc23)NC(=O)[C@H](Cc2ccc(O)cc2)NC(=O)[C@@H]2CCCN2C(=O)[C@H]2CCCN2C(=O)[C@H](Cc2ccc(O)cc2)NC(=O)[C@H](Cc2c[nH]c3ccccc23)NC(=O)[C@H](CCCCN)NC(=O)[C@H](CCCCN)NC(=O)[C@H](CCCNC(=N)N)NC1=O [Example 9] (cyclo(YWVRKKWY[dP]P)),,IC50 [1]: 0.5 mM
CC(C)[C@@H]1NC(=O)[C@H](C)NC(=O)[C@H](Cc2ccc(O)cc2)NC(=O)[C@@H]2CCCN2C(=O)[C@H]2CCCN2C(=O)[C@H](Cc2ccc(O)cc2)NC(=O)[C@H](C)NC(=O)[C@H](CCCCN)NC(=O)[C@H](CCCCN)NC(=O)[C@H](CCCNC(=N)N)NC1=O [Example 10] (cyclo(PYAVRKKAY[dP])),2,
CC(C)[C@@H]1NC(=O)[C@H](CO)NC(=O)[C@H](Cc2ccc(O)cc2)NC(=O)[C@@H]2CCCN2C(=O)[C@H]2CCCN2C(=O)[C@H](Cc2ccc(O)cc2)NC(=O)[C@H](CO)NC(=O)[C@H](CCCCN)NC(=O)[C@H](CCCCN)NC(=O)[C@H](CCCNC(=N)N)NC1=O [Example 11] (cyclo(PYSVRKKSY[dP])),2,
CC(C)[C@@H]1NC(=O)[C@H](CCCCN)NC(=O)[C@H](Cc2ccc(O)cc2)NC(=O)[C@@H]2CCCN2C(=O)[C@H]2CCCN2C(=O)[C@H](Cc2ccc(O)cc2)NC(=O)[C@H](CCCCN)NC(=O)[C@H](CCCCN)NC(=O)[C@H](CCCCN)NC(=O)[C@H](CCCNC(=N)N)NC1=O [Example 12] (cyclo(PYKVRKKKY[dP])),1.5,
CC[C@H](C)[C@@H]1NC(=O)[C@H](Cc2c[nH]c3ccccc23)NC(=O)[C@@H]2CCCN2C(=O)[C@H]2CCCN2C(=O)[C@H](Cc2c[nH]c3ccccc23)NC(=O)[C@@H]2CCCN2C(=O)[C@H](CCCCN)NC(=O)[C@H](CCCCN)NC(=O)[C@H](CCCNC(=N)N)NC(=O)[C@H](C(C)C)NC1=O [Example 13] (cyclo(PWIVRKKPW[dP])),0.26,
CC(C)[C@@H]1NC(=O)[C@H](Cc2ccc(O)cc2)NC(=O)[C@H](Cc2c[nH]c3ccccc23)NC(=O)[C@@H]2CCCN2C(=O)[C@H]2CCCN2C(=O)[C@H](Cc2c[nH]c3ccccc23)NC(=O)[C@H](Cc2ccc(O)cc2)NC(=O)[C@H](CCCCN)NC(=O)[C@H](CCCCN)NC(=O)[C@H](CCCNC(=N)N)NC1=O [Example 14] (cyclo(PWYVRKKYW[dP])),0.17,
CC(C)[C@@H]1NC(=O)[C@H](C)NC(=O)[C@H](Cc2c[nH]c3ccccc23)NC(=O)[C@@H]2CCCN2C(=O)[C@H]2CCCN2C(=O)[C@H](Cc2c[nH]c3ccccc23)NC(=O)[C@H](C)NC(=O)[C@H](CCCCN)NC(=O)[C@H](CCCCN)NC(=O)[C@H](CCCNC(=N)N)NC1=O [Example 16] (cyclo(PWAVRKKAW[dP])),0.8,
CC(C)[C@@H]1NC(=O)[C@H](CO)NC(=O)[C@H](Cc2c[nH]c3ccccc23)NC(=O)[C@@H]2CCCN2C(=O)[C@H]2CCCN2C(=O)[C@H](Cc2c[nH]c3ccccc23)NC(=O)[C@H](CO)NC(=O)[C@H](CCCCN)NC(=O)[C@H](CCCCN)NC(=O)[C@H](CCCNC(=N)N)NC1=O [Example 17] (cyclo(PWSVRKKSW[dP])),0.8,
CC(C)[C@@H]1NC(=O)[C@H](CCCCN)NC(=O)[C@H](Cc2c[nH]c3ccccc23)NC(=O)[C@@H]2CCCN2C(=O)[C@H]2CCCN2C(=O)[C@H](Cc2c[nH]c3ccccc23)NC(=O)[C@H](CCCCN)NC(=O)[C@H](CCCCN)NC(=O)[C@H](CCCCN)NC(=O)[C@H](CCCNC(=N)N)NC1=O [Example 18] (cyclo(PWKVRKKKW[dP])),0.5,
B1,,IC50 [2]: 1.5 mM
B2,,IC50 [2]: < 2.5 mM
B3,,IC50 [2]: 2.5 mM
B4,,IC50 [2]: 1.5 mM
B5,,IC50 [2]: 0.8 mM
